One assay addresses Cbl-b (Homo sapiens (Human), UniProt Q13191). The assay can be described thus: Cbl-b LCK Ub TR-FRET assay (Cbl-b Lck HTRF). It is filed as biochemical. A digest of the protocol:
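Biotin-Cbl-b preincubated with compound (10-point 3-fold series) 60 min, then His-LCK with 1 mM ATP (2× mixture) added for 90 min at room temperature. Ubiquitination detected by TR-FRET using HA-ubiquitin/UBE2D2 adduct, anti-HA-D2 and streptavidin-Eu; IC50 normalised to no-LCK and DMSO controls.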
On the technique in general: In TR-FRET formats the signal depends on donor and acceptor labels being close together.

The target of another assay is c-Cbl (Homo sapiens (Human), UniProt P22681). The assay can be described thus: C-Cbl LCK Ub TR-FRET assay (c-cbl Lck HTRF). Particulars: for (fold-selectivity): C-cbl Lck HTRF IC50 relative to Cbl-b Lck HTRF IC50. The class given is biochemical. A digest of the protocol: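 After the ubiquitination reaction, detection mixture was added and plates incubated 20 min at room temperature before reading. IC50 values were calculated with wells lacking LCK as the low control and DMSO as the high control.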

The structures appear in SMILES notation. Where a name gives a salt, the structure may show the parent alone.

The term IC50 denotes the concentration at which inhibition is half-maximal.

Sequence of c-Cbl (P22681 47-435): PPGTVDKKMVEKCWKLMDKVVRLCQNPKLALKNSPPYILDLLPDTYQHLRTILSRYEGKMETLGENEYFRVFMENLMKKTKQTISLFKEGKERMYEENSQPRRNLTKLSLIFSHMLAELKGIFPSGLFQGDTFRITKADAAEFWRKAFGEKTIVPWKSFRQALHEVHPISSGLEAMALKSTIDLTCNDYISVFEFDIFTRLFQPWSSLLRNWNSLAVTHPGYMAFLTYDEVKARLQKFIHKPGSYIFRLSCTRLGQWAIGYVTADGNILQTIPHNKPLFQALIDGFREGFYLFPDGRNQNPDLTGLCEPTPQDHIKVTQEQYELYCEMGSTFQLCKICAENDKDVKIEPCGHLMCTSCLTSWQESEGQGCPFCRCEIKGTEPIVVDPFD
Sequence of Cbl-b (Q13191 40-426): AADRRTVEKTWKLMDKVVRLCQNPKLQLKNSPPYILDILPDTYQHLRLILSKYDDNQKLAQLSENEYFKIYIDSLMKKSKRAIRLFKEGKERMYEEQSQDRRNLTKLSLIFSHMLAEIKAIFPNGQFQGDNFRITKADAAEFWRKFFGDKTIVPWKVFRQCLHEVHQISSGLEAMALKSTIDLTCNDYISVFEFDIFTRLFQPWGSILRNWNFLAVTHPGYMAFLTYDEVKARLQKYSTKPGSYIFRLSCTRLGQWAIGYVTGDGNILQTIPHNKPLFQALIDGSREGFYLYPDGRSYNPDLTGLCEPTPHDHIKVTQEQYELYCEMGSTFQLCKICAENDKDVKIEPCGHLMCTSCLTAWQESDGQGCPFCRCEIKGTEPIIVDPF

Consider `CCNc1cc(N2Cc3c(cc(CNC4(C)CCC4)cc3C(F)(F)F)C2=O)cc(C2(Cc3nncn3C)CCC2)c1` [Compound 463, 2-(3-(ethylamino)-5-(1-((4-methyl-4H-1,2,4-triazol-3-yl)methyl)cyclobutyl)phenyl)-6-(((1-methylcyclobutyl)amino)methyl)-4-(trifluoromethyl)isoindolin-1-one], for which the IC50 against Cbl-b came out at 6 nM. In addition, on c-Cbl, 3.5 nM corresponded to half-maximal inhibition (IC50) and the “(fold-selectivity)” value is “(0.55x)”.

On to `Cn1cnnc1CC1(c2ccnc(N3Cc4c(cc(CNC5(C)CCC5)cc4C(F)(F)F)C3=O)c2)CCC1` [Compound 326, 2-(4-(1-((4-methyl-4H-1,2,4-triazol-3-yl)methyl)cyclobutyl)pyridin-2-yl)-6-(((1-methylcyclobutyl)amino)methyl)-4-(trifluoromethyl)isoindolin-1-one], for which the IC50 at Cbl-b stood at 15 nM. In addition, on c-Cbl, the 50% inhibitory concentration (IC50) worked out at 16 nM and the “(fold-selectivity)” value is reported as “(1.1x)”.

On to `CCNCc1cc2c(c(C(F)(F)F)c1)CN(c1cccc(C3([C@@H](F)c4nncn4C)COC3)c1)C2=O` [Compound 213, (R)-6-((ethylamino)methyl)-2-(3-(3-(fluoro(4-methyl-4H-1,2,4-triazol-3-yl)methyl)oxetan-3-yl)phenyl)-4-(trifluoromethyl)isoindolin-1-one], for which the concentration for half-maximal inhibition (IC50) on Cbl-b was found to be 38 nM. Further, on c-Cbl, the IC50 came to 61 nM and the “(fold-selectivity)” value is reported as 1.6x.

Turning to `CCCC1(O)CN(Cc2cc3c(c(C(F)(F)F)c2)CN(c2cccc(C4([C@H](F)c5nncn5C)COC4)c2)C3=O)C1` [Compound 172, (S)-2-(3-(3-(fluoro(4-methyl-4H-1,2,4-triazol-3-yl)methyl)oxetan-3-yl)phenyl)-6-((3-hydroxy-3-propylazetidin-1-yl)methyl)-4-(trifluoromethyl)isoindolin-1-one], at Cbl-b, the half-inhibitory concentration (IC50) is 180 nM. On c-Cbl, the half-maximal inhibitory concentration (IC50) was determined as 520 nM and the “(fold-selectivity)” value amounted to 2.9x.

`CC(C)[C@H]1CN(C)CCN1Cc1cc2c(c(C(F)(F)F)c1)CN(c1cc(C3(Cc4nncn4C)COC3)cc(OC3CCCC3)n1)C2=O` [Compound 293, (S)-2-(6-(cyclopentyloxy)-4-(3-((4-methyl-4H-1,2,4-triazol-3-yl)methyl)oxetan-3-yl)pyridin-2-yl)-6-((2-isopropyl-4-methylpiperazin-1-yl)methyl)-4-(trifluoromethyl)isoindolin-1-one] registered a half-inhibitory concentration (IC50) against Cbl-b of 5.5 nM. Moreover, at c-Cbl, half-maximal inhibition (IC50) was put at 7.8 nM and the “(fold-selectivity)” value was “(1.4x)”.

Turning to `COCC1(NCc2cc3c(c(C(F)(F)F)c2)CN(c2cccc(C4(Cc5nncn5C)CC(F)(F)C4)c2)C3=O)CC1` [Compound 367, 2-(3-(3,3-difluoro-1-((4-methyl-4H-1,2,4-triazol-3-yl)methyl)cyclobutyl)phenyl)-6-(((1-(methoxymethyl)cyclopropyl)amino)methyl)-4-(trifluoromethyl)isoindolin-1-one], the IC50 against Cbl-b is 30 nM. Besides, at c-Cbl, the IC50 was 29 nM and the “(fold-selectivity)” value is “(0.96x)”.

At Cbl-b, `CC(C)[C@H]1CNCCN1Cc1cc2c(c(C(F)(F)F)c1)CN(c1cccc(C3([C@@H](F)c4nncn4C)CCC3)c1)C2=O` [Compound 216, 2-(3-(1-((R)-fluoro(4-methyl-4H-1,2,4-triazol-3-yl)methyl)cyclobutyl)phenyl)-6-(((S)-2-isopropylpiperazin-1-yl)methyl)-4-(trifluoromethyl)isoindolin-1-one] displayed an IC50 of 8 nM. Moreover, at c-Cbl, half-maximal inhibition (IC50) was put at 4.8 nM and the “(fold-selectivity)” value came out at 0.60x.

`CC[C@H]1CC[C@H](c2cc3c(c(C(F)(F)F)c2)CN(c2cccc(C4(Cc5nncn5C)CC(F)(F)C4)c2)C3=O)N1` [Compound 469, 2-(3-(3,3-difluoro-1-((4-methyl-4H-1,2,4-triazol-3-yl)methyl)cyclobutyl)phenyl)-6-((2R,5S)-5-ethylpyrrolidin-2-yl)-4-(trifluoromethyl)isoindolin-1-one] returned an IC50 against Cbl-b of 48 nM. Also, at c-Cbl, half-maximal inhibition (IC50) required 52 nM and the “(fold-selectivity)” value is “(1.1x)”.

For the molecule `Cn1cnnc1CC1(c2cc(NC3CCCC3)nc(N3Cc4c(cc(CNC5(C)CCC5)cc4C(F)(F)F)C3=O)c2)COC1` [Compound 298, 2-(6-(cyclopentylamino)-4-(3-((4-methyl-4H-1,2,4-triazol-3-yl)methyl)oxetan-3-yl)pyridin-2-yl)-6-(((1-methylcyclobutyl)amino)methyl)-4-(trifluoromethyl)isoindolin-1-one], the IC50 at Cbl-b amounted to 9.9 nM. Further, on c-Cbl, the IC50 is 13 nM and the “(fold-selectivity)” value is on record as “(1.3x)”.

As to `Cn1cnnc1CC1(c2cccc(N3Cc4c(cc(CNC5(C)CCC5)c(F)c4C(F)(F)F)C3=O)c2)CC(F)(F)C1` [Compound 244, 2-(3-(3,3-difluoro-1-((4-methyl-4H-1,2,4-triazol-3-yl)methyl)cyclo-butyl)phenyl)-5-fluoro-6-(((1-methylcyclobutyl)amino)methyl)-4-(trifluoromethyl)isoindolin-1-one], the results for the IC50 on Cbl-b and on c-Cbl were 15 nM and 14 nM, respectively. Also, the “(fold-selectivity)” value at c-Cbl is on record as “(0.97x)”.

For the molecule `CC(C)NCc1cc2c(c(C(F)(F)F)c1)CN(c1cccc(C3([C@@H](F)c4nncn4C)CC(F)(F)C3)c1)C2=O` [Compound 417, (R)-2-(3-(3,3-difluoro-1-(fluoro(4-methyl-4H-1,2,4-triazol-3-yl)methyl)cyclobutyl)phenyl)-6-((isopropylamino)methyl)-4-(trifluoromethyl)isoindolin-1-one], the IC50 against Cbl-b was found to be 57 nM. For the same molecule, on c-Cbl, the half-inhibitory concentration (IC50) was determined as 52 nM and the “(fold-selectivity)” value was “(0.93x)”.

Take `CN(C)C(=O)CNc1cc(C2(Cc3nncn3C)CCC2)cc(N2Cc3c(cc(CNC4(C)CCC4)cc3C(F)(F)F)C2=O)n1` [Compound 311, N,N-dimethyl-2-((4-(1-((4-methyl-4H-1,2,4-triazol-3-yl)methyl)cyclobutyl)-6-(6-(((1-methylcyclobutyl)amino)methyl)-1-oxo-4-(trifluoromethyl)isoindolin-2-yl)pyridin-2-yl)amino)acetamide formate]: the 50% inhibitory concentration (IC50) stood at 110 nM on Cbl-b and 140 nM against c-Cbl.

Take `Cn1cnnc1[C@@H](F)C1(c2cccc(N3Cc4c(cc(CN5CC(C(F)F)C5)cc4C(F)(F)F)C3=O)c2)COC1` [Compound 138, (S)-6-((3-(difluoromethyl)azetidin-1-yl)methyl)-2-(3-(3-(fluoro(4-methyl-4H-1,2,4-triazol-3-yl)methyl)oxetan-3-yl)phenyl)-4-(trifluoromethyl)isoindolin-1-one]: at Cbl-b, the half-maximal inhibitory concentration (IC50) amounted to 98 nM. Further, on c-Cbl, half-maximal inhibition (IC50) required 180 nM and the “(fold-selectivity)” value amounted to 1.8x.

Molecule `Cn1cnnc1[C@H](F)C1(c2cccc(N3Cc4c(cc(CN5CC(CCO)C5)cc4C(F)(F)F)C3=O)c2)COC1` [Compound 177, (R)-2-(3-(3-(fluoro(4-methyl-4H-1,2,4-triazol-3-yl)methyl)oxetan-3-yl)phenyl)-6-((3-(2-hydroxyethyl)azetidin-1-yl)methyl)-4-(trifluoromethyl)isoindolin-1-one] registered an IC50 against Cbl-b of 41 nM. Besides, on c-Cbl, it took 91 nM to reach half-maximal inhibition (IC50) and the “(fold-selectivity)” value is on record as 2.2x.

For the molecule `Cn1cnnc1[C@H](F)C1(c2cccc(N3Cc4c(Br)cccc4C3=O)c2)COC1` [Compound 203, (R)-4-bromo-2-(3-(3-(fluoro(4-methyl-4H-1,2,4-triazol-3-yl)methyl)oxetan-3-yl)phenyl)isoindolin-1-one], the IC50 against Cbl-b was 200 nM; against c-Cbl, 400 nM. Moreover, at c-Cbl, the “(fold-selectivity)” value is listed as 2.0x.

On Cbl-b, `Cn1cnnc1CC1(c2cccc(N3Cc4c(cc(CNCC5CC5)cc4C(F)(F)F)C3=O)c2)CC(F)(F)C1` [Compound 334, 6-(((cyclopropylmethyl)amino)methyl)-2-(3-(3,3-difluoro-1-((4-methyl-4H-1,2,4-triazol-3-yl)methyl)cyclobutyl)phenyl)-4-(trifluoromethyl)isoindolin-1-one] came in with an IC50 of 11 nM. Also, on c-Cbl, the IC50 was 8.1 nM and the “(fold-selectivity)” value is listed as “(0.72) x”.

Molecule `CCOc1cc(N2Cc3c(cc(CNC4(C)CCC4)cc3C(F)(F)F)C2=O)cc(C2(Cc3nncn3C)COC2)c1` [Compound 473, 2-(3-ethoxy-5-(3-((4-methyl-4H-1,2,4-triazol-3-yl)methyl)oxetan-3-yl)phenyl)-6-(((1-methylcyclobutyl)amino)methyl)-4-(trifluoromethyl)isoindolin-1-one] registered a half-maximal inhibitory concentration (IC50) on Cbl-b of 15 nM. Moreover, on c-Cbl, the IC50 is 17 nM and the “(fold-selectivity)” value is given as “(1.2x)”.

Turning to `CC(C)Oc1cccc2c1CN(c1cccc(C3([C@@H](F)c4nncn4C)COC3)c1)C2=O` [Compound 207, (R)-2-(3-(3-(fluoro(4-methyl-4H-1,2,4-triazol-3-yl)methyl)oxetan-3-yl)phenyl)-4-isopropoxyisoindolin-1-one], on Cbl-b, half-maximal inhibition (IC50) was put at 4500 nM. Besides, at c-Cbl, the IC50 came to 13000 nM and the “(fold-selectivity)” value came out at 2.8x.

On to `Cn1cnnc1CC1(c2cccc(N3Cc4c(cc(CN5CCNC[C@H]5C5CC5)cc4C(F)(F)F)C3=O)c2)CC(F)(F)C1` [Compound 436, (R)-6-((2-cyclopropylpiperazin-1-yl)methyl)-2-(3-(3,3-difluoro-1-((4-methyl-4H-1,2,4-triazol-3-yl)methyl)cyclobutyl)phenyl)-4-(trifluoromethyl)isoindolin-1-one], for which the 50% inhibitory concentration (IC50) at Cbl-b was 34 nM. On c-Cbl, the 50% inhibitory concentration (IC50) turned out to be 32 nM and the “(fold-selectivity)” value is given as “(0.97x)”.

`CC(C)[C@H]1CN(C)CCN1Cc1cc2c(c(C(F)(F)F)c1)CN(c1cccc(C3(Cc4nncn4C)CC(F)(F)C3)c1)C2=O` [Compound 240, (S)-2-(3-(3,3-difluoro-1-((4-methyl-4H-1,2,4-triazol-3-yl)methyl)-cyclobutyl)phenyl)-6-((2-isopropyl-4-methylpiperazin-1-yl)methyl)-4-(trifluoromethyl)iso-indolin-1-one] returned an IC50 at Cbl-b of 54 nM. In addition, on c-Cbl, the IC50 came to 39 nM and the “(fold-selectivity)” value was “(0.71x)”.

The values are drawn from patent US20250230147A1, “LACTAMS AS CBL-B INHIBITORS” (Genentech, Inc., priority 2021, published 2025).
